From patent US10517889B2, “Modulators of SMAD7 expression” (Ionis Pharmaceuticals, Inc., priority 2017, dated 2019)
Strand notation (5' to 3'): a small letter for the sugar, then the base; units joined by * are phosphorothioate-linked, units joined directly phosphodiester-linked; [ ] holds rarer units or linkages, { } end groups; capitals alone tell only the bases. k = constrained ethyl (cEt); [5mC] = 5-methylcytosine; d = 2'-deoxy (DNA)

system: human SMAD7 mRNA; assay: Antisense inhibition of human SMAD7 mRNA expression in Hep3B cells by 3-10-3 cEt gapmers, 10,000 nM, electroporation (Example 2); assay type: cell-based; conditions: Hep3B cells, electroporation with 10,000 nM antisense oligonucleotide, approximately 24 hours, SMAD7 mRNA by RT-PCR (RTS5062), relative to untreated control cells
Summary of the method: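 SMAD7 mRNA was measured by real-time PCR (RTS5062) with RiboGreen total-RNA normalization, about 24 h after 10,000 nM gapmer was delivered by electroporation into Hep3B cells at 20,000 per well. Gapmers were 16-mer 3-10-3 cEt, fully phosphorothioate; values are % inhibition versus untreated controls.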

First: 799241 (kA*kT*kT*d[5mC]*dT*d[5mC]*d[5mC]*dG*dT*dA*dT*dT*dT*kA*k[5mC]*kT; antisense) [compound 799241]
Second: 799252 (antisense k[5mC]*kA*kA*dA*dG*dG*dT*dG*d[5mC]*dG*d[5mC]*dG*dG*k[5mC]*k[5mC]*kA) [compound 799252]
The “% Inhibition” value of the first is lower: 16% for the first, 41% for the second.

Compared with “799253 (antisense k[5mC]*kT*k[5mC]*d[5mC]*dA*dA*dA*dG*dG*dT*dG*d[5mC]*dG*k[5mC]*kG*kG) [compound 799253]”, “799254 (antisense kA*kA*kA*d[5mC]*dT*d[5mC]*d[5mC]*dA*dA*dA*dG*dG*dT*kG*k[5mC]*kG) [compound 799254]” is higher in “% Inhibition” value: 0% for the first, 11% for the second.

“799255 (antisense k[5mC]*kA*kA*dA*dA*d[5mC]*dT*d[5mC]*d[5mC]*dA*dA*dA*dG*kG*kT*kG) [compound 799255]” and “799256 (antisense k[5mC]*k[5mC]*kA*dA*dA*dA*d[5mC]*dT*d[5mC]*d[5mC]*dA*dA*dA*kG*kG*kT) [compound 799256]” are the same in “% Inhibition” value: 0% for the first, 0% for the second.

First: 799257 (antisense k[5mC]*k[5mC]*k[5mC]*d[5mC]*dA*dA*dA*dA*d[5mC]*dT*d[5mC]*d[5mC]*dA*kA*kA*kG) [compound 799257]
Second: 799258 (antisense kG*k[5mC]*k[5mC]*d[5mC]*d[5mC]*dA*dA*dA*dA*d[5mC]*dT*d[5mC]*d[5mC]*kA*kA*kA) [compound 799258]
The “% Inhibition” value of the first is higher: 27% for the first, 4% for the second.

Going from “799259 (antisense kT*kG*k[5mC]*d[5mC]*d[5mC]*d[5mC]*dA*dA*dA*dA*d[5mC]*dT*d[5mC]*k[5mC]*kA*kA) [compound 799259]” to “799260 (antisense kT*kT*kG*d[5mC]*d[5mC]*d[5mC]*d[5mC]*dA*dA*dA*dA*d[5mC]*dT*k[5mC]*k[5mC]*kA) [compound 799260]”, the “% Inhibition” value falls from 45% to 27%.

In the case of “799261 (antisense kT*kT*kT*dG*d[5mC]*d[5mC]*d[5mC]*d[5mC]*dA*dA*dA*dA*d[5mC]*kT*k[5mC]*k[5mC]) [compound 799261]”, the “% Inhibition” value is reported as 52%.

same assay, conditions: Hep3B cells, electroporation with 10,000 nM antisense oligonucleotide, approximately 24 hours, primer probe set RTS5062, relative to untreated control cells

“799219 (kT*kG*kG*d[5mC]*dA*dT*dT*dT*dG*dT*dT*dA*dT*kT*kT*kG; antisense) [compound 799219]” and “799220 (kA*kA*kT*dT*dT*dG*dG*d[5mC]*dA*dT*dT*dT*dG*kT*kT*kA; antisense) [compound 799220]” are the same in “% Inhibition” value: 0% for the first, 0% for the second.

“799221 (kT*kT*kT*dA*dA*dT*dT*dT*dG*dG*d[5mC]*dA*dT*kT*kT*kG; antisense) [compound 799221]” and “799222 (k[5mC]*kT*kT*dT*dT*dT*dT*dA*dA*dT*dT*dT*dG*kG*k[5mC]*kA; antisense) [compound 799222]” are the same in “% Inhibition” value: 0% for the first, 0% for the second.

Going from “799223 (kA*kT*k[5mC]*dT*dT*dG*dT*dG*dT*dT*dT*dA*dT*k[5mC]*kT*kT; antisense) [compound 799223]” to “799224 (k[5mC]*k[5mC]*kA*dA*dT*d[5mC]*dT*dT*dG*dT*dG*dT*dT*kT*kA*kT; antisense) [compound 799224]”, the “% Inhibition” value rises from 0% to 3%.

First: 799225 (kA*k[5mC]*kA*d[5mC]*d[5mC]*dA*dA*dT*d[5mC]*dT*dT*dG*dT*kG*kT*kT; antisense) [compound 799225]
Second: 799226 (kA*kA*kA*dA*d[5mC]*dA*d[5mC]*d[5mC]*dA*dA*dT*d[5mC]*dT*kT*kG*kT; antisense) [compound 799226]
The “% Inhibition” value of the first is lower: 4% for the first, 15% for the second.

First: 799227 (kG*kA*kA*dA*dA*dA*dA*dA*d[5mC]*dA*d[5mC]*d[5mC]*dA*kA*kT*k[5mC]; antisense) [compound 799227]
Second: 799228 (k[5mC]*kA*kT*dA*dG*dA*dA*dA*dA*dA*dA*dA*d[5mC]*kA*k[5mC]*k[5mC]; antisense) [compound 799228]
The “% Inhibition” value of the first is lower: 2% for the first, 4% for the second.

Going from “799236 (kT*kA*kA*dA*d[5mC]*dT*d[5mC]*d[5mC]*dT*dT*dT*dA*dG*kA*kA*kA; antisense) [compound 799236]” to “799237 (kA*k[5mC]*kA*dT*dA*dA*dA*d[5mC]*dT*d[5mC]*d[5mC]*dT*dT*kT*kA*kG; antisense) [compound 799237]”, the “% Inhibition” value falls from 45% to 9%.

With “799238 (kA*kA*kT*dG*dG*dA*dA*d[5mC]*dA*dT*dA*dA*dA*k[5mC]*kT*k[5mC]; antisense) [compound 799238]” the “% Inhibition” value was 17%.

Going from “799229 (kA*kA*k[5mC]*dA*d[5mC]*d[5mC]*d[5mC]*dA*dT*dA*dG*dA*dA*kA*kA*kA; antisense) [compound 799229]” to “799230 (kG*kG*kT*dG*dA*dT*dA*dA*d[5mC]*dA*d[5mC]*d[5mC]*d[5mC]*kA*kT*kA; antisense) [compound 799230]”, the “% inhibition of SMAD7 mRNA expression” value falls from 22% to 14%.

Going from “799231 (kG*k[5mC]*kT*dA*dG*dG*dT*dG*dA*dT*dA*dA*d[5mC]*kA*k[5mC]*k[5mC]; antisense) [compound 799231]” to “799232 (kT*k[5mC]*kA*dG*d[5mC]*dT*dA*dG*dG*dT*dG*dA*dT*kA*kA*k[5mC]; antisense) [compound 799232]”, the “% inhibition of SMAD7 mRNA expression” value rises from 8% to 13%.

First: 799233 (k[5mC]*kA*kT*dT*d[5mC]*dA*dG*d[5mC]*dT*dA*dG*dG*dT*kG*kA*kT; antisense) [compound 799233]
Second: 799234 (kA*kA*kA*d[5mC]*dA*dT*dT*d[5mC]*dA*dG*d[5mC]*dT*dA*kG*kG*kT; antisense) [compound 799234]
The “% inhibition of SMAD7 mRNA expression” value of the first is higher: 28% for the first, 13% for the second.

First: 799235 (kG*kA*kA*dA*dA*dA*d[5mC]*dA*dT*dT*d[5mC]*dA*dG*k[5mC]*kT*kA; antisense) [compound 799235]
Second: 799242 (k[5mC]*kG*kT*dG*dA*dT*dT*d[5mC]*dT*d[5mC]*d[5mC]*dG*dT*kA*kT*kT; antisense) [compound 799242]
The “% inhibition of SMAD7 mRNA expression” value of the first is higher: 24% for the first, 0% for the second.

Going from “799243 (k[5mC]*k[5mC]*kA*d[5mC]*dT*dG*dG*dT*dG*dT*dT*d[5mC]*dG*kA*k[5mC]*kG; antisense) [compound 799243]” to “799244 (kG*kG*kG*d[5mC]*d[5mC]*dA*d[5mC]*dT*dG*dG*dT*dG*dT*kT*k[5mC]*kG; antisense) [compound 799244]”, the “% inhibition of SMAD7 mRNA expression” value falls from 19% to 8%.

Compared with “799245 (kG*kT*kA*dT*d[5mC]*dT*dG*dG*dG*d[5mC]*d[5mC]*dA*d[5mC]*kT*kG*kG; antisense) [compound 799245]”, “799246 (antisense kA*k[5mC]*kA*dG*dT*dA*dT*d[5mC]*dT*dG*dG*dG*d[5mC]*k[5mC]*kA*k[5mC]) [compound 799246]” is higher in “% inhibition of SMAD7 mRNA expression” value: 18% for the first, 74% for the second.

Going from “799247 (antisense kA*k[5mC]*kG*dA*d[5mC]*dA*dG*dT*dA*dT*d[5mC]*dT*dG*kG*kG*k[5mC]) [compound 799247]” to “799248 (antisense kG*k[5mC]*k[5mC]*dA*d[5mC]*dG*dA*d[5mC]*dA*dG*dT*dA*dT*k[5mC]*kT*kG) [compound 799248]”, the “% inhibition of SMAD7 mRNA expression” value falls from 61% to 40%.

First: 799249 (antisense kG*k[5mC]*kG*dG*d[5mC]*d[5mC]*dA*d[5mC]*dG*dA*d[5mC]*dA*dG*kT*kA*kT) [compound 799249]
Second: 799250 (antisense kT*kG*k[5mC]*dG*d[5mC]*dG*dG*d[5mC]*d[5mC]*dA*d[5mC]*dG*dA*k[5mC]*kA*kG) [compound 799250]
The “% inhibition of SMAD7 mRNA expression” value of the first is higher: 26% for the first, 21% for the second.

Compared with “799251 (antisense kA*kG*kG*dT*dG*d[5mC]*dG*d[5mC]*dG*dG*d[5mC]*d[5mC]*dA*k[5mC]*kG*kA) [compound 799251]”, “799262 (antisense k[5mC]*kT*k[5mC]*dT*dT*dT*dG*d[5mC]*d[5mC]*d[5mC]*d[5mC]*dA*dA*kA*kA*k[5mC]) [compound 799262]” is lower in “% inhibition of SMAD7 mRNA expression” value: 37% for the first, 0% for the second.

Compared with “799263 (antisense kT*k[5mC]*k[5mC]*dA*dA*d[5mC]*dT*d[5mC]*dT*d[5mC]*dT*dT*dT*kG*k[5mC]*k[5mC]) [compound 799263]”, “799264 (antisense k[5mC]*k[5mC]*kA*dT*d[5mC]*d[5mC]*dA*dA*d[5mC]*dT*d[5mC]*dT*d[5mC]*kT*kT*kT) [compound 799264]” is higher in “% inhibition of SMAD7 mRNA expression” value: 0% for the first, 16% for the second.

Compared with “799265 (antisense k[5mC]*kT*kT*d[5mC]*d[5mC]*dA*dT*d[5mC]*d[5mC]*dA*dA*d[5mC]*dT*k[5mC]*kT*k[5mC]) [compound 799265]”, “799266 (antisense kG*kG*k[5mC]*d[5mC]*dT*dT*d[5mC]*d[5mC]*dA*dT*d[5mC]*d[5mC]*dA*kA*k[5mC]*kT) [compound 799266]” is higher in “% inhibition of SMAD7 mRNA expression” value: 3% for the first, 37% for the second.

In the case of “799267 (antisense kG*kT*kT*d[5mC]*dG*dG*d[5mC]*d[5mC]*dT*dT*d[5mC]*d[5mC]*dA*kT*k[5mC]*k[5mC]) [compound 799267]”, the “% inhibition of SMAD7 mRNA expression” value is reported as 62%.

same assay, conditions: Hep3B cells, electroporation, 10,000 nM, approximately 24 hours; 3-10-3 cEt gapmers targeting SEQ ID NO: 3 and 4

Compared with “799239 (kT*k[5mC]*kA*dG*dT*dT*dG*dG*dT*dT*dT*dG*dA*kG*kA*kA; antisense) [compound 799239]”, “799240 (kA*kT*k[5mC]*dT*dG*dG*dA*d[5mC]*dA*dG*dT*d[5mC]*dA*kG*kT*kT; antisense) [compound 799240]” is higher in “% inhibition of SMAD7 mRNA expression” value: 16% for the first, 45% for the second.

First: 799268 (antisense kT*k[5mC]*k[5mC]*dA*dG*dT*dT*d[5mC]*dG*dG*d[5mC]*d[5mC]*dT*kT*k[5mC]*k[5mC]) [compound 799268]
Second: 799269 (antisense kA*kG*kA*d[5mC]*dT*d[5mC]*d[5mC]*dA*dG*dT*dT*d[5mC]*dG*kG*k[5mC]*k[5mC]) [compound 799269]
The “% inhibition of SMAD7 mRNA expression” value of the first is higher: 24% for the first, 20% for the second.
